Values after ≈ are worked out from the molar mass of the structure shown. Read-outs that look alike come from different tables or passages of the source. Square brackets hold non-standard residues; d marks the D form. Peptide text beside a SMILES is read from it. * marks the point of attachment. ξ: configuration not given here. Phe(4-guanidino) = N=C(N)Nc1ccc(C[C@H](N)C(=O)O)cc1; Bip = N[C@@H](Cc1ccc(-c2ccccc2)cc1)C(=O)O; ξpGlu = O=C1CCC(C(=O)O)N1; Agmatine = N=C(N)NCCCCN*; Orn = NCCC[C@H](N)C(=O)O
Legend:
[1] = tested on: MRSA (ATCC 33591); assay: MIC determination by broth microdilution vs. MRSA (ATCC 33591); assay type: cell-based, Staphylococcus aureus; conditions: for MIC: Staphylococcus aureus
Method: (§1) Using a sterile loop, 3 to 5 isolated colonies of bacteria of the same morphological appearance are selected from the overnight agar plate. The colonies are transferred into a conical flask containing 5 mL of liquid medium (i.e. Mueller-Hinton broth). The broth is incubated at 37° C. in a shaker at 220 rpm until it reaches a turbidity that is equal to the turbidity of a McFarland Standard 0.5 (correspond to 1×10^8 cfu/mL). This culture growth step will require 1-2 hours depending on the bacteria tested.
During this pause period, an antibacterial dilution is prepared. Therefore an antibacterial stock solution is diluted in Mueller-Hinton broth. The concentration of DMSO is kept at 5%. 100 μL of the antibacterial solution are dispensed into the first well of a row. 50 μL of medium containing 0.5% of DMSO are dispensed to the rest of the wells. A 2-fold serial dilution is achieved by transferring 50 μL from the first well (containing the highest concentration of antibacterial) into the second well, and continuing like this until the 10th well in the row. The final 50 μL are discarded so that every well has 50 μL of each antibacterial dilution.
The 11th well was used as the growth control well (medium with bacterial inoculums, no antibacterial) while the 12th well was the sterility control well (medium only).
The bacterial suspension prepared above is mixed thoroughly, and diluted by a factor of 1:100 in the sterile medium. Each well and the growth control well is inoculated with 50 μL of the bacterial suspension. […] To the sterility control well 50 μL of sterile medium are added in place of the bacterial suspension. 10 μL aliquot from the growth control well is removed immediately after inoculating the plate and pipetted it into a sterile Eppendorf tube holding 990 μL of sterile broth. It is mixed well by vortexing. This suspension is further diluted (1:10) by pipetting 100 μL into 900 μL of sterile broth and mixing it well. 100 μL of each of the two dilutions are plated onto two different antibacterial-free agar plates. A sterile cell spreader is used to spread the liquid. Then the plate is sealed with a transparent adhesive film. The microtiter plate and agar plates are incubated at 37° C. for 16-20 hours or until satisfactory growth is obtained. The colonies on the agar plate are counted the next day to verify that the right number of cfu was inoculated. The plate is agitated in the SpectraMax spectrophotometer for 90 s and the OD600 for all the wells in the plate is recorded.

[2] = tested on: S. aureus (RN 4220); assay: MIC determination by broth microdilution vs. S. aureus (RN 4220); assay type: cell-based; conditions: Staphylococcus aureus
Method: as §1
(§2) During this pause period, an antibacterial dilution is prepared. Therefore an antibacterial stock solution is diluted in Mueller-Hinton broth. The concentration of DMSO is kept at 5%. 100 μL of the antibacterial solution are dispensed into the first well of a row. 50 μL of medium containing 0.5% of DMSO are dispensed to the rest of the wells. […]
(§3) The bacterial suspension prepared above is mixed thoroughly, and diluted by a factor of 1:100 in the sterile medium. […] The colonies on the agar plate are counted the next day to verify that the right number of cfu was inoculated. The plate is agitated in the SpectraMax spectrophotometer for 90 s and the OD600 for all the wells in the plate is recorded.

[3] = tested on: S. aureus (ATCC 29213); assay: MIC determination by broth microdilution vs. S. aureus (ATCC 29213); assay type: cell-based; conditions: Staphylococcus aureus
Method: as §1, §2, §3

[4] = tested on: Strep. pneumoniae (ATCC 49619); assay: MIC determination by broth microdilution vs. Strep. pneumoniae (ATCC 49619); assay type: cell-based, Streptococcus pneumoniae
Method: as §1, §2, §3

[5] = tested on: Strep. pyogenes (ARC 838); assay: MIC determination by broth microdilution vs. Strep. pyogenes (ARC 838); assay type: cell-based; conditions: Streptococcus pyogenes
Method: as §1, §2, §3

[6] = tested on: E. faecalis; assay: Antibacterial activity on E. faecalis; assay type: cell-based
Method: as §1, §2, §3

[7] = tested on: S. aureus (ATCC 29213); assay: Bactericidal activity at MIC after dilution of the antibacterial (FIG. 2); assay type: cell-based, Staphylococcus aureus; conditions: treatment at its MIC
[8] = MRSA (ATCC 33591), read-out: MIC

| Compound | MIC [1, 8] [µM] | also measured |
| --- | --- | --- |
| CCCCCCCCCC(=O)N[C@@H](Cc1ccc(-c2ccccc2)cc1)C(=O)N[C@@H](CCCNC(=N)N)C(=O)N[C@@H](Cc1ccc(-c2ccccc2)cc1)C(=O)NCCCCNC(=N)N [Compound 25] | 12.5 (≈ 11.1 µg/mL) | – |
| N=C(N)NCCCCNC(=O)[C@H](Cc1ccc(-c2ccccc2)cc1)NC[C@H](CCCNC(=N)N)NC(=O)[C@@H](N)Cc1ccc(-c2ccccc2)cc1 [Compound 28] | 12.5 (≈ 8.99 µg/mL) | – |
| N=C(N)NCCCCNC(=O)[C@H](Cc1ccc(-c2ccccc2)cc1)NC(=O)CN(CCCNC(=N)N)C(=O)[C@@H](N)Cc1ccc(-c2ccccc2)cc1 [Compound 21] | 6.25 (≈ 4.58 µg/mL) | – |
| N=C(N)NCCCCNC(=O)[C@H](Cc1ccc(-c2ccccc2)cc1)NC(=O)[C@H](CCCNC(=N)N)NC(=O)[C@@H](N)Cc1ccc(-c2ccccc2)cc1 [Compound 1a, Bip-Arg-Bip-agmantine] | – | MIC value compared with Linezolid and Daptomycin ([1]; S. aureus tests (ATCC 33591, RN 4220, ATCC 29123)): lower MIC value; MIC ([1]; MRSA (ATCC 33591), read-out: MIC value): 3.12 µM (≈ 2.29 µg/mL); MIC ([1]; MRSA (ATCC 33591), read-out: MIC(μM) (ATCC 33591)): 3.12 µM (≈ 2.29 µg/mL); MIC [2]: 3.12 µM (≈ 2.29 µg/mL); MIC ([3]; ATCC 29123 / ATCC 29213, S. aureus (ATCC 29123) as printed, read-out: MIC value): 3.12 µM (≈ 2.29 µg/mL); MIC ([3]; ATCC29213, S. aureus (ATCC 29213), read-out: MIC(μM) (ATCC 29213)): 3.12 µM (≈ 2.29 µg/mL); MIC compared with Daptomycin ([4]; Strep. tests (Strep. pneumoniae ATCC 49619, Strep. pyogenes ARC 838)): at least improvement over Daptomycin; MIC ([4]; Streptococcus pneumoniae, ATCC49619, Strep. pneumoniae (ATCC 49619)): 6.25 µM (≈ 4.58 µg/mL); MIC [5]: 6.25 µM (≈ 4.58 µg/mL); activity on E. faecalis [6]: showed activity; mode of action (regrowth after dilution of the antibacterial) [7]: bactericidal mode of action |
| N=C(N)NCCC[C@H](NC(=O)[C@@H](N)Cc1ccc(-c2ccccc2)cc1)C(=O)N[C@@H](Cc1ccc(-c2ccccc2)cc1)C(=O)N[C@H]1CC[C@@H](NC(=N)N)CC1 [Compound 6] | 6.25 (≈ 4.74 µg/mL) | – |
| CC(=O)NC[C@H]1CN(c2ccc(N3CCOCC3)c(F)c2)C(=O)O1 [Linezolid, reference compound] | – | mode of action (regrowth after dilution of the antibacterial) [7]: bacteriostatic |
| N=C(N)NCCCCNC(=O)[C@H](Cc1ccc(-c2ccccc2)cc1)NC(=O)[C@H](CCCNC(=N)N)NC(=O)[C@H](Cc1ccc(-c2ccccc2)cc1)NC(=O)C1CCC(=O)N1 (stereo partly shown) [Compound 24] ([ξpGlu][Bip]R[Bip]-Agmatine) | 12.5 (≈ 10.6 µg/mL) | – |
| N=C(N)NCCC[C@H](NC(=O)[C@@H](N)Cc1ccc(-c2ccccc2)cc1)C(=O)N[C@@H](Cc1ccc(-c2ccccc2)cc1)C(=O)N[C@H]1CC[C@H](NC(=N)N)CC1 [Compound 7] | 6.25 (≈ 4.74 µg/mL) | – |
| N=C(N)NCCCCNC(=O)CN(Cc1ccc(-c2ccccc2)cc1)C(=O)[C@@H](CCCNC(=N)N)NC(=O)[C@H](N)Cc1ccc(-c2ccccc2)cc1 [Compound 11] | – | MIC [1]: 12.5 µM (≈ 9.16 µg/mL) |
| N=C(N)NCCCCNC(=O)CN(Cc1ccc(-c2ccccc2)cc1)C(=O)[C@H](CCCNC(=N)N)NC(=O)[C@@H](N)Cc1ccc(-c2ccccc2)cc1 [Compound 10] | – | MIC [1]: 3.12 µM (≈ 2.29 µg/mL) |
| N=C(N)NCCCCNC(=O)[C@H](Cc1ccc(-c2ccccc2)cc1)NC(=O)[C@H](Cc1ccc(NC(=N)N)cc1)NC(=O)[C@@H](N)Cc1ccc(-c2ccccc2)cc1 [Compound 17] (H-[Bip]-[Phe(4-guanidino)]-[Bip]-Agmatine) | 6.25 (≈ 4.88 µg/mL) | – |
| CC(C)(C)c1ccc(-c2ccc(C[C@H](NC(=O)[C@H](CCCNC(=N)N)NC(=O)[C@@H](N)Cc3ccc(-c4ccc(C(C)(C)C)cc4)cc3)C(=O)NCCCCNC(=N)N)cc2)cc1 [Compound 26] | 12.5 (≈ 10.6 µg/mL) | – |

Further lines, with some results ahead:

| MIC [1, 8] [µM] | Compound | also measured |
| --- | --- | --- |
| 12.5 (≈ 8.64 µg/mL) | N=C(N)NCCCCNC(=O)[C@H](Cc1ccc(-c2ccccc2)cc1)NC(=O)[C@H](CCCN)NC(=O)[C@@H](N)Cc1ccc(-c2ccccc2)cc1 [Compound 14] (H-[Bip]-[Orn]-[Bip]-Agmatine) | – |
| 3.12 (≈ 2.25 µg/mL) | N=C(N)NCCCCNC(=O)[C@H](Cc1ccc(-c2ccccc2)cc1)NC(=O)[C@H](CCCNC(=N)N)NC[C@@H](N)Cc1ccc(-c2ccccc2)cc1 [Compound 29] | – |
| 6.25 (≈ 4.67 µg/mL) | CN(C(=O)[C@H](CCCNC(=N)N)NC(=O)[C@@H](N)Cc1ccc(-c2ccccc2)cc1)[C@@H](Cc1ccc(-c2ccccc2)cc1)C(=O)NCCCCNC(=N)N [Compound 18] | – |
| 25 (≈ 18.3 µg/mL) | N=C(N)NCCC[C@H](NC(=O)[C@@H](N)Cc1ccc(-c2ccccc2)cc1)C(=O)N[C@@H](Cc1ccc(-c2ccccc2)cc1)C(=O)NCCCCNC(N)=O [Compound 5] | – |
| 25 (≈ 18.3 µg/mL) | N=C(N)NCCCCNC(=O)[C@H](Cc1ccc(-c2ccccc2)cc1)NC(=O)[C@@H](CCCNC(=N)N)NC(=O)[C@@H](N)Cc1ccc(-c2ccccc2)cc1 [Compound 3] | – |
| 6.25 (≈ 4.41 µg/mL) | N=C(N)NCCCCNC(=O)[C@H](Cc1ccc(-c2ccccc2)cc1)NC(=O)[C@H](CCCCN)NC(=O)[C@@H](N)Cc1ccc(-c2ccccc2)cc1 [Compound 13] (H-[Bip]-Lys-[Bip]-Agmatine) | – |
| 6.25 (≈ 4.67 µg/mL) | N=C(N)NCCCCNC(=O)[C@H](Cc1ccc(-c2ccccc2)cc1)NC(=O)C[C@H](CCCNC(=N)N)NC(=O)[C@@H](N)Cc1ccc(-c2ccccc2)cc1 [Compound 20] | – |
| 25 (≈ 17.3 µg/mL) | N=C(N)NCCCCNC(=O)[C@H](Cc1ccc(-c2ccccc2)cc1)NC(=O)[C@H](CCCNC(=N)N)NC(=O)[C@@H](N)Cc1ccc(Cl)cc1 [Compound 22] | – |
| 12.5 (≈ 8.64 µg/mL) | N=C(N)NCCCCNC(=O)[C@H](Cc1ccc(Cl)cc1)NC(=O)[C@H](CCCNC(=N)N)NC(=O)[C@@H](N)Cc1ccc(-c2ccccc2)cc1 [Compound 12] | – |
| 25 (≈ 16.4 µg/mL) | N=C(N)NCCCCNC(=O)[C@H](Cc1ccccc1)NC(=O)[C@H](CCCNC(=N)N)NC(=O)[C@@H](N)Cc1ccc(-c2ccccc2)cc1 [Compound 8] (H-[Bip]-Arg-Phe-Agmatine) | – |
| 6.25 (≈ 4.67 µg/mL) | N=C(N)NCCCCNC(=O)[C@H](Cc1ccc(-c2ccccc2)cc1)NC(=O)[C@H](CCCCNC(=N)N)NC(=O)[C@@H](N)Cc1ccc(-c2ccccc2)cc1 [Compound 19] | – |
| 12.5 (≈ 9.16 µg/mL) | N=C(N)NCCCCNC(=O)[C@@H](Cc1ccc(-c2ccccc2)cc1)NC(=O)[C@H](CCCNC(=N)N)NC(=O)[C@@H](N)Cc1ccc(-c2ccccc2)cc1 [Compound 2] | – |
| 25 (≈ 17.6 µg/mL) | N=C(N)NCCCCNC(=O)[C@H](Cc1ccc(-c2ccccc2)cc1)NC(=O)[C@H](CNC(=N)N)NC(=O)[C@@H](N)Cc1ccc(-c2ccccc2)cc1 [Compound 16] | – |
| 25 (≈ 18.3 µg/mL) | N=C(N)NCCCCNC(=O)[C@H](Cc1ccc(-c2ccccc2)cc1)NC(=O)[C@H](CCCNC(=N)N)NC(=O)[C@H](N)Cc1ccc(-c2ccccc2)cc1 [Compound 4] | – |
| 12.5 (≈ 9.51 µg/mL) | C/N=C(/NC)NCCC[C@H](NC(=O)[C@@H](N)Cc1ccc(-c2ccccc2)cc1)C(=O)N[C@@H](Cc1ccc(-c2ccccc2)cc1)C(=O)NCCCCNC(=N)N [Compound 15] | – |
| 50 (≈ 35.3 µg/mL) | N=C(N)NCCCCNC(=O)[C@H](Cc1ccc2ccccc2c1)NC(=O)[C@H](CCCNC(=N)N)NC(=O)[C@@H](N)Cc1ccc(-c2ccccc2)cc1 [Compound 9] | – |
| 6.25 (≈ 4.49 µg/mL) | N=C(N)NCCCCNC[C@H](Cc1ccc(-c2ccccc2)cc1)NC(=O)[C@H](CCCNC(=N)N)NC(=O)[C@@H](N)Cc1ccc(-c2ccccc2)cc1 [Compound 27] | – |
| 12.5 (≈ 9.69 µg/mL) | CC(=O)N[C@@H](Cc1ccc(-c2ccccc2)cc1)C(=O)N[C@@H](CCCNC(=N)N)C(=O)N[C@@H](Cc1ccc(-c2ccccc2)cc1)C(=O)NCCCCNC(=N)N [Compound 23] | – |

Source: patent publication US10787483B2, “Antimicrobial peptidomimetics” (Agency for Science, Technology and Research, priority 2014, dated 2020)
